Experimental data from patent US8329726B2, “Inhibitors of VEGF receptor and HGF receptor signaling” (MethylGene Inc., priority 2005, dated 2012).

Tests used:
[1] = molecular target: T1, recombinant human c-Met/HGF receptor (Homo sapiens, UniProt P08581); assay: In vitro receptor tyrosine kinase assay (DELFIA), c-Met/HGF receptor; type: biochemical; settings: read-out: CMET IC50
T1 construct: His tag (pBlueBacHis2A vector); made in house; host or cells: Hi-5 cells (Trichoplusia ni), baculovirus
Experimental: Cell pellets were frozen at −80° C. until purification was performed.
(§1) The coated plates were washed and stored at 4° C. […] After incubation, the kinase reactions were quenched with EDTA and the plates were washed.

[2] = system: DU145; assay: DU145 scattering inhibition (HGF dependent scattering); type: cell-based; settings: Homo sapiens, DU-145; HGF dependent scattering, DU145 cells; read-out: DU145 SCATTERING INHIB IC50
From the text: (§2) HGF has well known activity in terms of inducing scattering and migration (wound healing) (Wells et al., Cell Motil Cytoskeleton. 2005 November 62(3):180-94; Miura et al., Urology 2001 December 58(6):1064-9; Nishimura et al., Int J Urol. 1998 May 5(3):276-81; Wang et al., Mol Cancer Ther. 2003 November; 2(11):1085-92; and Christensen et al., Cancer Res. 2003 Nov. 1; 63(21):7345-55).

[3] = system: A549; assay: A549 wound healing inhibition (HGF dependent migration); type: cell-based; settings: Homo sapiens, A549 cells, read-out: A549 WOUND HEALING INHIB IC50
From the text: as §2

[4] = molecular target: T2, VEGF receptor KDR (Homo sapiens, UniProt P35968); assay: In vitro receptor tyrosine kinase assay (DELFIA), VEGF receptor KDR; type: biochemical; settings: read-out: VEGFR IC50
T2 construct: made in house; host or cells: Sf9 cells (Spodoptera frugiperda), baculovirus
Experimental: In the case of VEGF receptor KDR a 1.6-kb cDNA corresponding to the catalytic domain of VEGFR2 or KDR (Genbank accession number AF035121 amino acid 806 to 1356) was cloned into the Pst I site of the pDEST20 Gateway vector (Invitrogen) for the production of a GST-tagged version of that enzyme.
The GST-VEGFR2806-1356 protein was expressed in […] (Spodoptera frugiperda) upon infection with recombinant baculovirus construct. […] Cell pellets were frozen at −80° C. until purification was performed.
The supernatant (cell extract) was used as starting material for purification of GST-VEGFR2806-1356.
The supernatant was loaded onto a GST-agarose column (Sigma) equilibrated with PBS pH 7.3. Following a four column volume (CV) wash with PBS pH 7.3+1% Triton X-100 and 4 CV wash with buffer B (50 mM Tris pH 8.0, 20% glycerol and 100 mM NaCl), bound proteins were step eluted with 5 CV of buffer B supplemented with 5 mM DTT and 15 mM glutathion. GST-VEGFR2806-1356 enriched fractions from this chromatography step were pooled based on U.V. trace i.e. fractions with high O.D.280. Final GST-VEGFR2806-1356 protein preparations concentrations were about 0.7 mg/ml with purity approximating 70%.
as §1

T1 sequence (P08581 1078-1337): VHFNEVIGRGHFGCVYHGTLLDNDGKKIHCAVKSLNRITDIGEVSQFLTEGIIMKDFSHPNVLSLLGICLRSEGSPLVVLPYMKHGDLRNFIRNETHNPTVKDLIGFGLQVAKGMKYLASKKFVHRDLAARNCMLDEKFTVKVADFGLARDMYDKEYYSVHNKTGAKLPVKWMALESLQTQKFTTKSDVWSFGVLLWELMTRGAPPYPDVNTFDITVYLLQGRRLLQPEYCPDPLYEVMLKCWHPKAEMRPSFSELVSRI
T2 sequence (P35968 806-1356): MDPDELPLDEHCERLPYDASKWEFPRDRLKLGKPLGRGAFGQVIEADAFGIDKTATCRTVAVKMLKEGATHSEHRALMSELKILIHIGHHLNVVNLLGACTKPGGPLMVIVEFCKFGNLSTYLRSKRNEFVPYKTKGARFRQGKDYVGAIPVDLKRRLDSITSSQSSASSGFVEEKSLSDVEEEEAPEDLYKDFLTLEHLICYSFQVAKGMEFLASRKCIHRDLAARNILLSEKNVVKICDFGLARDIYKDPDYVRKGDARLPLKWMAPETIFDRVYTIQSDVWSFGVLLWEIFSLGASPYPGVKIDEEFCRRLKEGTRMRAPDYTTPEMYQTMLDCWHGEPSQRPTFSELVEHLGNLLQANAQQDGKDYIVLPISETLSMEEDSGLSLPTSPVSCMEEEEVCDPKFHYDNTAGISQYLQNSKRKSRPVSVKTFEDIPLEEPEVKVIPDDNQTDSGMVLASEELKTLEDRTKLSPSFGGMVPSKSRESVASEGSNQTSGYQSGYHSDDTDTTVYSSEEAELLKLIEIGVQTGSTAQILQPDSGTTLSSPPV

Compound	IC50 [1] [nM]	IC50 [2] [nM]	IC50 [3] [nM]	IC50 [4] [nM]
Cn1cnc(-c2cc3nccc(Oc4ccc(NC(=O)N5CCN(C6CCCCC6)C5=O)cc4F)c3s2)c1	< 50	< 1000	1000 to 5000	< 50
Cn1cnc(-c2cc3nccc(Oc4ccc(NC(CC(=O)Nc5ccc(F)cc5)C(F)(F)F)cc4)c3s2)c1 (centres unmarked)	50 to 250	1000 to 5000	1000 to 5000	< 50
O=C(Nc1ccc(Oc2ccnc3cc(-c4ccc(CN5CCNCC5)cc4)sc23)c(F)c1)N1CCN(c2ccccc2)C1=O	< 50	< 1000	< 1000	< 50
COc1ccccc1CCNC(=O)C(=O)Nc1ccc(Oc2ccnc3cc(-c4ccc(OCCN5CCOCC5)c(OC)c4)sc23)c(F)c1	250 to 500	> 10000	1000 to 5000	> 500
O=C(Nc1ccc(Nc2ccnc3cc(-c4cn(CCN5CCCC5)cn4)sc23)c(F)c1)N1CCN(c2ccccc2)C1=O	< 50	> 10000	> 10000	250 to 500
Cn1cnc(-c2cc3nccc(Oc4ccc(NC(=O)C5(C)CCN(c6ccccc6)C5=O)cc4F)c3s2)c1 (centres unmarked)	50 to 250	1000 to 5000	1000 to 5000	250 to 500
CNC(=O)N1CCN(Cc2ccc(-c3cc4nccc(Oc5ccc(NC(=O)N6CCN(c7ccccc7)C6=O)cc5F)c4s3)cc2)CC1	< 50	< 1000	< 1000	< 50
CN1CCN(CCN(C)Cc2ccc(-c3cc4nccc(Oc5ccc(NC(=O)CC(=O)Nc6ccc(F)cc6)cc5F)c4s3)cc2)CC1	< 50	< 1000	< 1000	< 50
CN(C)CCCN(C)Cc1ccc(-c2cc3nccc(Oc4ccc(NC(=O)CC(=O)N(C)c5ccccc5)cc4F)c3s2)cc1	< 50	< 1000	< 1000	< 50
CN1CCN(Cc2ccc(-c3cc4nccc(Oc5ccc(NC(=O)C6(C(=O)Nc7ccc(F)cc7)CC6)cc5F)c4s3)cc2)CC1	< 50	< 1000	< 1000	< 50
CN(C)[C@H]1CCN(C(=O)c2cc3nccc(Oc4ccc(NC(=O)N5CCN(c6ccccc6)C5=O)cc4F)c3s2)C1	< 50	< 1000	< 1000	< 50
CN1CCN(CCN(C)Cc2ccc(-c3cc4nccc(Oc5ccc(NC(=O)CC(=O)N(C)c6ccc(F)cc6)cc5F)c4s3)cc2)CC1	< 50	< 1000	1000 to 5000	< 50
O=C1N(C(=S)Nc2ccc(Oc3ccnc4cc(-c5cn(CCN6CCCC6)cn5)sc34)c(F)c2)CCN1c1ccc(F)cc1	< 50	< 1000	< 1000	< 50
COCCNCc1ccc(-c2cc3nccc(Oc4ccc(NC(=O)N5CCN(c6ccccc6)C5=O)cc4F)c3s2)cc1	< 50	< 1000	< 1000	< 50
Cn1ccnc1-c1cc2nccc(Oc3ccc(NC(=O)N4CCN(c5ccc(F)cc5)C4=O)cc3F)c2s1	50 to 250	< 1000	< 1000	< 50
Cn1cncc1-c1cc2nccc(Oc3ccc(NC(=O)CC(=O)Nc4ccccc4)cc3F)c2s1 [drawing 288]	< 50	< 1000	< 1000	< 50
Cn1cnc(-c2cc3nccc(Oc4ccc(NC(=O)C5CCN(c6ccccc6)C5=O)cc4F)c3s2)c1 (centres unmarked)	< 50	< 1000	< 1000	< 50
CN1CCN(Cc2ccc(-c3cc4ncnc(Oc5ccc(NC(=O)CC(=O)Nc6ccccc6)cc5F)c4s3)cc2)CC1	50 to 250	1000 to 5000	> 10000	< 50
Cn1cnc(-c2cc3nccc(Oc4ccc(NC(=O)N5CCN(c6ccccc6)C5=S)cc4F)c3s2)c1	> 500	> 10000	> 10000	> 500
COc1ccccc1NC(=O)CC(=O)Nc1ccc(Oc2ccnc3cc(-c4ccc(OCCN5CCOCC5)cc4)sc23)c(F)c1	50 to 250	1000 to 5000	1000 to 5000	< 50
CN(C)CC#Cc1cc2nccc(Oc3ccc(NC(=O)CC(=O)Nc4ccccc4F)cc3F)c2s1	50 to 250	1000 to 5000	> 10000	50 to 250
Cn1cnc(-c2cc3nccc(Oc4ccc(NC(=O)N5CCN(c6ccc(F)cc6)C5=O)cc4F)c3s2)c1	< 50	< 1000	< 1000	< 50
CN1CCN(Cc2ccc(-c3cc4nccc(Oc5ccc(NC(=O)N6CCN(c7ccccc7)C6=O)cc5F)c4s3)cc2)CC1	< 50	< 1000	< 1000	< 50
CN(c1ccc(NC(=O)C2CCN(c3ccccc3)C2=O)cc1F)c1ccnc2cc(-c3cn(C)cn3)sc12 (centres unmarked)	50 to 250	1000 to 5000	1000 to 5000	> 500

More lines, now with the values ahead:

IC50 [1] [nM]	IC50 [2] [nM]	IC50 [3] [nM]	IC50 [4] [nM]	Compound
50 to 250	1000 to 5000	1000 to 5000	250 to 500	COc1ccccc1NC(=O)CC(=O)Nc1ccc(Oc2ccnc3cc(C4=CCCN(C)C4)sc23)c(F)c1
> 500	> 10000	> 10000	> 500	COc1ccccc1NC(=O)CC(=O)Nc1ccc(Oc2ccnc3cc(-c4cnc(N5CCOCC5)nc4)sc23)c(F)c1
50 to 250	< 1000	< 1000	< 50	CN(C(=O)CC(=O)Nc1ccc(Oc2ccnc3cc(-c4cn(C)cn4)sc23)c(F)c1)c1ccccc1
50 to 250	1000 to 5000	> 10000	50 to 250	COc1ccccc1NC(=O)CC(=O)Nc1ccc(Oc2ccnc3cc(-c4cccc(CN5CCOCC5)c4)sc23)c(F)c1
< 50	< 1000	< 1000	< 50	Cn1cnc(-c2cc3nccc(Oc4ccc(NC(=O)CC(=O)Nc5ccccc5F)cc4F)c3s2)c1
50 to 250	< 1000	< 1000	< 50	CCn1cc(-c2cc3nccc(Oc4ccc(NC(=O)CC(=O)Nc5ccccc5OC)cc4F)c3s2)nc1C
250 to 500	1000 to 5000	> 10000	50 to 250	CCn1cnc(-c2cc3nccc(Oc4ccc(NC(=O)CC(Nc5ccc(F)cc5)C(F)(F)F)cc4F)c3s2)c1 (centres unmarked)
50 to 250	1000 to 5000	1000 to 5000	< 50	CCn1cnc(-c2cc3nccc(Oc4ccc(NC(=O)CC(=O)Nc5cccc(OC)c5)cc4F)c3s2)c1
< 50	< 1000	< 1000	50 to 250	COc1ccccc1NC(=O)CC(=O)Nc1ccc(Oc2ccnc3cc(-c4cccc(CN(C)C)c4)sc23)c(F)c1
< 50	< 1000	< 1000	< 50	CCn1cnc(-c2cc3nccc(Oc4ccc(NC(=O)CC(=O)N(C)c5ccccc5)cc4F)c3s2)c1
50 to 250	1000 to 5000	1000 to 5000	< 50	CCN(C(=O)CC(=O)Nc1ccc(Oc2ccnc3cc(-c4cn(CC)cn4)sc23)c(F)c1)c1ccccc1
< 50	< 1000	< 1000	< 50	COc1ccccc1NC(=O)C1(C(=O)Nc2ccc(Oc3ccnc4cc(-c5cn(CCN6CCCC6)cn5)sc34)c(F)c2)CC1
50 to 250	1000 to 5000	1000 to 5000	50 to 250	CCn1cncc1-c1cc2nccc(Oc3ccc(NC(=O)CC(=O)Nc4ccccc4F)cc3F)c2s1
50 to 250	1000 to 5000	> 10000	< 50	Cn1cncc1-c1cc2nccc(Oc3ccc(NC(=O)CC(=O)Nc4ccccc4O)cc3F)c2s1
< 50	< 1000	< 1000	< 50	Cn1ccnc1-c1cc2nccc(Oc3ccc(NC(=O)CC(=O)Nc4ccccc4F)cc3F)c2s1 [drawing 285]
< 50	< 1000	< 1000	< 50	CCn1cnc(-c2cc3nccc(Oc4ccc(NC(=O)C5CCN(c6ccccc6)C5=O)cc4F)c3s2)c1 (centres unmarked)
< 50	< 1000	< 1000	< 50	CN(C)CCn1cnc(-c2cc3nccc(Oc4ccc(NC(=O)C5(C(=O)Nc6ccccc6)CC5)cc4F)c3s2)c1
